Measurements from patent EP0092073A1, “Magnesium salt of chenodeoxycholic acid and ursodeoxycholic acid, the process for its preparation, and therapeutic compositions which contain it as active principle” (SCHWARZ ITALIA S.p.A., priority 1982, dated 1983).

Legend:
dog = assay: Acute lethality and toxicity, oral administration (gastric probe); type: in vivo; design: key to Toxic symptomatology Type: NN = no symptomatology; D = depression; conditions: for % mortality at following times after administration 24 h / % mortality at following times after administration 7 days / Toxic symptomatology Type / Toxic symptomatology Latency: oral; for LD50 (mg/kg with reliability limits) 7 days after treatment: po, also printed as greater than 600 Dts/kg
Mus musculus = assay: Lethality and toxicity, endoperitoneal administration; type: in vivo; design: key to Toxic symptomatology Type: NN = no symptomatology; D = depression; conditions: for % mortality at the following times after administration 24 h / % mortality at the following times after administration 7 days / Toxic symptomatology Latency / Toxic symptomatology Type: endoperitoneal; for LD50 (mg/kg with reliability limits) 7 days after treatment: ip, probit method
Method: (§1) Unless otherwise specified, the research was carried out using: a) Mg-UCD capsules as such; b) the powdered contents of Mg-UCD capsules; CDCA (chenodeoxycholic acid) and UDCA (ursodeoxycholic acid) as pure substance which in all cases was partly dissolved and partly suspended under warm conditions (T = 30°C) in 10% gum arabic mucilage (so as to administer 10-40 ml of liquid per kg orally). In certain cases, namely in the experiments involving parenteral administration, the active principle of Mg-UCD, the chenodeoxycholic acid and ursodeoxycholic acid were dissolved in distilled water of slightly alkaline pH (5-10 ml/kg).
(§2) The generally acute lethality, toxicity and tolerability were determined by oral administration of the Mg-UCD (by gastric probe) in the Mus musculus, rat and dog. Animals of both sexes were used, none of which were pregnant. They were fasted for about 12 hours before treatment (but allowing them free access to water). The investigations were carried out using the Mg-UCD in powder form. Comparative investigations were carried out on the rat and Mus musculus using the active principle by endoperitoneal administration, and chenodeoxycholic acid and ursodeoxycholic acid by oral administration (using a gastric probe). Each dose was administered to 20 rats or Mus musculus (10 male and 10 female) and to eight dogs (4 male and 4 female). The animals were observed attentively during the 7 days following administration, and any lethality, toxic symptoms, disturbances, functional variations determinable with the eye, behaviour etc. were noted.
(§3) The LD50 was determined 7 days after administration using the probit method.

rat = assay: as above; type: in vivo; design: key to Toxic symptomatology Type: NN = no symptomatology; D = depression; conditions: for % mortality at the following times after administration 24 h / % mortality at the following times after administration 7 days / Toxic symptomatology Latency / Toxic symptomatology Type: endoperitoneal; for LD50 (mg/kg with reliability limits) 7 days after treatment: ip, probit method
Method: as §1, §2, §3

Solubility = type: physicochemical
[1] = Hydrolysis by the gastric juice; conditions: prodrug supplying its two component acids

double magnesium salt of chenodeoxycholic acid and ursodeoxycholic acid [Mg-UCD]
% mortality at following times after administration 24 h (dog; Dog F, 250 mg/kg (60 Dts/kg)): 0% | % mortality at following times after administration 7 days (dog; Dog F, 250 mg/kg (60 Dts/kg)): 0% | Toxic symptomatology Type (dog; Dog F, 250 mg/kg (60 Dts/kg)): NN | % mortality at following times after administration 24 h (dog; Dog F, 2500 mg/kg (600 Dts/kg)): 0% | % mortality at following times after administration 7 days (dog; Dog F, 2500 mg/kg (600 Dts/kg)): 0% | Toxic symptomatology Latency (dog; Dog F, 2500 mg/kg (600 Dts/kg)): 5-10 min | Toxic symptomatology Type (dog; Dog F, 2500 mg/kg (600 Dts/kg)): D | LD50 (mg/kg with reliability limits) 7 days after treatment (dog; Dog F): greater than 2500 mg/kg (greater than 600 Dts/kg) | % mortality at following times after administration 24 h (dog; Dog M, 250 mg/kg (60 Dts/kg)): 0% | % mortality at following times after administration 7 days (dog; Dog M, 250 mg/kg (60 Dts/kg)): 0% | Toxic symptomatology Type (dog; Dog M, 250 mg/kg (60 Dts/kg)): NN | % mortality at following times after administration 24 h (dog; Dog M, 2500 mg/kg (600 Dts/kg)): 0% | % mortality at following times after administration 7 days (dog; Dog M, 2500 mg/kg (600 Dts/kg)): 0% | Toxic symptomatology Latency (dog; Dog M, 2500 mg/kg (600 Dts/kg)): 5-10 min | Toxic symptomatology Type (dog; Dog M, 2500 mg/kg (600 Dts/kg)): D | LD50 (mg/kg with reliability limits) 7 days after treatment (dog; Dog M): greater than 2500 mg/kg (greater than 600 Dts/kg) | any case of death or any significant toxic symptomatology (dog; dog, oral (gastric probe), 7 days following treatment, individual doses up to 2500 mg/kg of active principle (600 Dts/kg)): does not show | % mortality at the following times after administration 24 h (Mus musculus; M. musculus F, 1000 mg/kg): 0% | % mortality at the following times after administration 7 days (Mus musculus; M. musculus F, 1000 mg/kg): 0% | Toxic symptomatology Latency (Mus musculus; M. musculus F, 1000 mg/kg): 1-2 min | Toxic symptomatology Type (Mus musculus; M. musculus F, 1000 mg/kg): D | % mortality at the following times after administration 24 h (Mus musculus; M. musculus F, 2000 mg/kg): 10% | % mortality at the following times after administration 7 days (Mus musculus; M. musculus F, 2000 mg/kg): 10% | Toxic symptomatology Latency (Mus musculus; M. musculus F, 2000 mg/kg): 1-2 min | Toxic symptomatology Type (Mus musculus; M. musculus F, 2000 mg/kg): D | % mortality at the following times after administration 24 h (Mus musculus; M. musculus F, 4000 mg/kg): 70% | % mortality at the following times after administration 7 days (Mus musculus; M. musculus F, 4000 mg/kg): 70% | Toxic symptomatology Latency (Mus musculus; M. musculus F, 4000 mg/kg): 1-2 min | Toxic symptomatology Type (Mus musculus; M. musculus F, 4000 mg/kg): D | LD50 (mg/kg with reliability limits) 7 days after treatment (Mus musculus; M. musculus F): 2455 (1984-3039) mg/kg | % mortality at the following times after administration 24 h (Mus musculus; M. musculus M, 1000 mg/kg): 0% | % mortality at the following times after administration 7 days (Mus musculus; M. musculus M, 1000 mg/kg): 0% | Toxic symptomatology Latency (Mus musculus; M. musculus M, 1000 mg/kg): 1-2 min | Toxic symptomatology Type (Mus musculus; M. musculus M, 1000 mg/kg): D | % mortality at the following times after administration 24 h (Mus musculus; M. musculus M, 2000 mg/kg): 10% | % mortality at the following times after administration 7 days (Mus musculus; M. musculus M, 2000 mg/kg): 10% | Toxic symptomatology Latency (Mus musculus; M. musculus M, 2000 mg/kg): 1-2 min | Toxic symptomatology Type (Mus musculus; M. musculus M, 2000 mg/kg): D | % mortality at the following times after administration 24 h (Mus musculus; M. musculus M, 4000 mg/kg): 60% | % mortality at the following times after administration 7 days (Mus musculus; M. musculus M, 4000 mg/kg): 60% | Toxic symptomatology Latency (Mus musculus; M. musculus M, 4000 mg/kg): 1-2 min | Toxic symptomatology Type (Mus musculus; M. musculus M, 4000 mg/kg): D | LD50 (mg/kg with reliability limits) 7 days after treatment (Mus musculus; M. musculus M): 2455 (1984-3039) mg/kg | % mortality at the following times after administration 24 h (rat; Rat F, 1000 mg/kg): 0% | % mortality at the following times after administration 7 days (rat; Rat F, 1000 mg/kg): 0% | Toxic symptomatology Latency (rat; Rat F, 1000 mg/kg): 1-2 min | Toxic symptomatology Type (rat; Rat F, 1000 mg/kg): D | % mortality at the following times after administration 24 h (rat; Rat F, 2000 mg/kg): 10% | % mortality at the following times after administration 7 days (rat; Rat F, 2000 mg/kg): 10% | Toxic symptomatology Latency (rat; Rat F, 2000 mg/kg): 1-2 min | Toxic symptomatology Type (rat; Rat F, 2000 mg/kg): D | % mortality at the following times after administration 24 h (rat; Rat F, 4000 mg/kg): 60% | % mortality at the following times after administration 7 days (rat; Rat F, 4000 mg/kg): 60% | Toxic symptomatology Latency (rat; Rat F, 4000 mg/kg): 1-2 min | Toxic symptomatology Type (rat; Rat F, 4000 mg/kg): D | LD50 (mg/kg with reliability limits) 7 days after treatment (rat; Rat F): 2449 (2063-2906) mg/kg | % mortality at the following times after administration 24 h (rat; Rat M, 1000 mg/kg): 0% | % mortality at the following times after administration 7 days (rat; Rat M, 1000 mg/kg): 0% | Toxic symptomatology Latency (rat; Rat M, 1000 mg/kg): 1-2 min | Toxic symptomatology Type (rat; Rat M, 1000 mg/kg): D | % mortality at the following times after administration 24 h (rat; Rat M, 2000 mg/kg): 10% | % mortality at the following times after administration 7 days (rat; Rat M, 2000 mg/kg): 10% | Toxic symptomatology Latency (rat; Rat M, 2000 mg/kg): 1-2 min | Toxic symptomatology Type (rat; Rat M, 2000 mg/kg): D | % mortality at the following times after administration 24 h (rat; Rat M, 4000 mg/kg): 70% | % mortality at the following times after administration 7 days (rat; Rat M, 4000 mg/kg): 70% | Toxic symptomatology Latency (rat; Rat M, 4000 mg/kg): 1-2 min | Toxic symptomatology Type (rat; Rat M, 4000 mg/kg): D | LD50 (mg/kg with reliability limits) 7 days after treatment (rat; Rat M): 2288 (1902-2751) mg/kg | Solubility (Solubility; in alcohol): fairly soluble in alcohol | Solubility (Solubility; in water, listed as Mg salt): practically insoluble in water | Solubility (Solubility; in water, listed as double salt): insoluble in water | hydrolysis by the gastric juice [1]: hydrolysed slowly
